Columns and labels:
[1] = target: Muscarinic acetylcholine receptor M3 (Homo sapiens, UniProt P20309); experiment: Antagonist activity at human muscarinic M3 receptor expressed in PathHunter U2OS CHRM3 beta-arrestin cells preincubated for 30 mins followed by agonist addition at 6 times EC80 and measured after 90 to 180 mins by PathHunter assay; assay type: functional, cell-based
[2] = target: Voltage-gated inwardly rectifying potassium channel KCNH2 (Homo sapiens, UniProt Q12809); experiment: Inhibition of hERG in HEK293 cells measured after 5 mins by patch-clamp assay
[3] = target: Histamine H1 receptor (Homo sapiens, UniProt P35367); experiment: Antagonist activity at human H1 receptor expressed in PathHunter CHO-K1 HRH1 beta-arrestin cells preincubated for 30 mins followed by agonist addition at 6 times EC80 and measured after 90 to 180 mins by PathHunter assay; assay type: functional, cell-based
Chain of Histamine H1 receptor (P35367 whole entry): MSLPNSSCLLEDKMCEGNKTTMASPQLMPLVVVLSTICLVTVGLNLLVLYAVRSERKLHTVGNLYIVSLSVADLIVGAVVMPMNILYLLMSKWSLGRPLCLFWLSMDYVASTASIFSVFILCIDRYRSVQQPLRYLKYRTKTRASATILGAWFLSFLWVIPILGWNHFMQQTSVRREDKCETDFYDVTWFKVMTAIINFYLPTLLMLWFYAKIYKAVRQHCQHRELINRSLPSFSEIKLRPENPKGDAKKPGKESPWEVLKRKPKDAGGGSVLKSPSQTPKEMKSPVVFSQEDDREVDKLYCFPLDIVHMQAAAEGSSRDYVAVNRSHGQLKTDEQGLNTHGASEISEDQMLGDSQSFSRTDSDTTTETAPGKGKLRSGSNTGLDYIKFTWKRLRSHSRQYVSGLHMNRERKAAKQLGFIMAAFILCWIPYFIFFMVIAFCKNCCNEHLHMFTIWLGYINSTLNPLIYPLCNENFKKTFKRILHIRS

Chain of Muscarinic acetylcholine receptor M3 (P20309 whole entry): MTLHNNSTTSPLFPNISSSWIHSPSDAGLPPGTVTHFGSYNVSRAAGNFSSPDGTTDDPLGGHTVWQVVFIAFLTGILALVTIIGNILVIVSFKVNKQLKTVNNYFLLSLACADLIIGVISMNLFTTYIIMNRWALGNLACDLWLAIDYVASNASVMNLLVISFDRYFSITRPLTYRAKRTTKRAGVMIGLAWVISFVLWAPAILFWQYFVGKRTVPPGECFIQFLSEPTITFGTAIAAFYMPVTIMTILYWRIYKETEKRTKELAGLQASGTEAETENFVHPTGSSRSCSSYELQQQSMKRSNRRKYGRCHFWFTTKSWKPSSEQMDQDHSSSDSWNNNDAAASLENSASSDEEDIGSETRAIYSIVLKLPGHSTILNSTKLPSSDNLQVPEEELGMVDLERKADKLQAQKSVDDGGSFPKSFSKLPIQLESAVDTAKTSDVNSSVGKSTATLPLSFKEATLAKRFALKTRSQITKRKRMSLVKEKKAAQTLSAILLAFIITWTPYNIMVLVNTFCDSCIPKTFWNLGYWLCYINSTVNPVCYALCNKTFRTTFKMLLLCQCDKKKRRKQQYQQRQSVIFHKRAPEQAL
Chain of Voltage-gated inwardly rectifying potassium channel KCNH2 (Q12809 whole entry): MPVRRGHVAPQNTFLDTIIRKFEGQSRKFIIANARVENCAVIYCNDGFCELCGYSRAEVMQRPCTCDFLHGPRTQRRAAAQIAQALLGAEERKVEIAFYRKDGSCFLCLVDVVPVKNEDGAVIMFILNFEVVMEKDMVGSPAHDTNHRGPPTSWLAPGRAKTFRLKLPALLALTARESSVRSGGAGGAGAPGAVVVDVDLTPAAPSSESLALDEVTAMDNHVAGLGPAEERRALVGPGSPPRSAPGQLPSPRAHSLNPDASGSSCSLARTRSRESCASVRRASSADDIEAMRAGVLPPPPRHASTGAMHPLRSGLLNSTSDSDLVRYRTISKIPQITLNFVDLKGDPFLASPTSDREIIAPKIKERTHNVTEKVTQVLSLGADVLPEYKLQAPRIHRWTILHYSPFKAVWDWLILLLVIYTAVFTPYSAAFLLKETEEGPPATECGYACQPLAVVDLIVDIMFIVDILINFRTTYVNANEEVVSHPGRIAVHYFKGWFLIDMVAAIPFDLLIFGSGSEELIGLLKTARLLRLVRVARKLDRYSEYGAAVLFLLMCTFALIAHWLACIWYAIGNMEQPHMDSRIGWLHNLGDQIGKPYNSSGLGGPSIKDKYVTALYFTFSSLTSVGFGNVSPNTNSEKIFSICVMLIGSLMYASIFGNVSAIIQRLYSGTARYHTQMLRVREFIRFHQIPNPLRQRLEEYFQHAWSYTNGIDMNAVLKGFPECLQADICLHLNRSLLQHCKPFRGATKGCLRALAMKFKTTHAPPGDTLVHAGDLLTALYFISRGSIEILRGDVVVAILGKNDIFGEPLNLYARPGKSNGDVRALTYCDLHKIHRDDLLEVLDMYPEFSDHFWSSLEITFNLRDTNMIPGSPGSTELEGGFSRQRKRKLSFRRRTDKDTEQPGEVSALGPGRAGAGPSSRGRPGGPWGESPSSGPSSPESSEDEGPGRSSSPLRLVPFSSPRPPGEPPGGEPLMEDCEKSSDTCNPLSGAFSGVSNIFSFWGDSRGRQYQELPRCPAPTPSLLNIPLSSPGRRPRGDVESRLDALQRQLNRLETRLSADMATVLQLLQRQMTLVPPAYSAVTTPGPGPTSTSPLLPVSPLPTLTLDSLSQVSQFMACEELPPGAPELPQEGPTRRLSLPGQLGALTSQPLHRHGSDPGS

IC50 [1] [µM]	IC50 [3] [µM]	Compound	IC50 [2] [µM]
> 10	–	O=C(CCO)N1CCC(=C2c3ccc(Cl)cc3CCc3cccnc32)CC1	–
> 10	–	CC(C)(C(=O)O)c1ccc(CCN2CCC(=C3c4ccc(Cl)cc4CCc4cccnc43)CC2)cc1	> 30
> 10	0.0572	CC(C)(C(=O)O)c1cccc(CC(O)CN2CCC(=C3c4ccc(Cl)cc4CCc4cccnc43)CC2)c1 (stereo not drawn)	–
> 10	0.126	O=C(O)CC(O)CN1CCC(=C2c3ccc(Cl)cc3CCc3cccnc32)CC1 (stereo not drawn)	> 30
